EC50, Activity and solubility data for three compounds are collected here from ChEMBL document CHEMBL3865812, “Selective killing of cancer cells with triterpenoic acid amides - The substantial role of an aromatic moiety alignment” (Eur J Med Chem, 2016).

Series [1] in a line: Cytotoxicity against human 518A2 cells measured after 96 hrs by SRB assay. It is filed as functional, cell-based. The note with it: 518A2, 96 h. Background: The SRB assay estimates cell density from bound dye.
A short description of series [2]: Cytotoxicity against human HT-29 cells measured after 96 hrs by SRB assay. It is filed as functional, cell-based. The note with it: HT-29, 96 h.
The nature of series [3]: Cytotoxicity against human MCF7 cells measured after 96 hrs by SRB assay. It is filed as functional, cell-based. As to conditions: MCF7, 96 h.
Series [4] can be described thus: Cytotoxicity against human A549 cells measured after 96 hrs by SRB assay. As to conditions: A549, 96 h. In kind it is functional, cell-based.
Series [5] can be described thus: Cytotoxicity against human A2780 cells measured after 96 hrs by SRB assay. As to conditions: A2780, 96 h. In kind it is functional, cell-based.
Series [6] in a line: Cytotoxicity against human 8505C cells measured after 96 hrs by SRB assay. It is filed as functional, cell-based.
The nature of series [7]: Cytotoxicity against mouse NIH/3T3 cells measured after 96 hrs by SRB assay. It is filed as toxicity, NIH3T3.
Series [8] deals with A2780. Description: Induction of apoptosis in human A2780 cells assessed as increase in apoptotic cells at 6 uM measured after 2 days by Annexin V/FITC/propidium iodide staining-based FACS analysis. It is filed as functional, cell-based. On the technique in general: A flow cytometer gives signals particle by particle.
The subject of series [9] is A2780. Description: Induction of apoptosis in human A2780 cells assessed as secondary necrotic cells at 6 uM measured after 2 days by Annexin V/FITC/propidium iodide staining-based FACS analysis. In kind it is functional, cell-based.
A short description of series [10]: Cell cycle arrest in human A2780 cells assessed as decrease in G1 peak at 6 uM measured after 24 hrs by propidium iodide staining based FACS analysis. In kind it is functional.
Series [11] is described as follows: Cell cycle arrest in human A2780 cells assessed as accumulation at S-phase at 6 uM measured after 24 hrs by propidium iodide staining based FACS analysis. In kind it is functional.
A short description of series [12]: Cell cycle arrest in human A2780 cells assessed as loss of G2 peak at 6 uM measured after 24 hrs by propidium iodide staining based FACS analysis. It is filed as functional.
Series [13] in a line: Cell cycle arrest in human A2780 cells assessed as decrease in accumulation of cells at S-phase at 6 uM measured after 48 hrs by propidium iodide staining based FACS analysis. In kind it is functional.
Series [14] in a line: Cell cycle arrest in human A2780 cells assessed as sub-G1 peak appearance at 6 uM measured after 48 hrs by propidium iodide staining based FACS analysis. In kind it is functional.
A short description of series [15]: Solubility of compound in water. In kind it is physicochemical. The note with it: buffer.

pEC50: −log10 of the molar value. Active and inactive are the calls of the source. No cut-off for these calls is given here.

In the case of `CC(=O)O[C@H]1C[C@]2(C)[C@H]3CC=C4[C@@H]5CC(C)(C)CC[C@]5(C(=O)Nc5ccc6ncccc6c5)CC[C@@]4(C)[C@]3(C)CC[C@H]2C(C)(C)[C@H]1OC(C)=O`, the pEC50 in series [1] was 5.54; in series [2], 5.36; in series [3] it was 5.24; in series [4], 5.31; in series [5] it was 5.70; in series [6] it was 5.42. The EC50 at 96 h in series [7] stood at 0.6 µM. The result (with A2780 [8]; with A2780 [9]; in [10]; in series [11]; in series [12]; in [13]) was Active. For the same compound, the outcome in [14] was Active. The solubility entry in [15] is recorded as “Insoluble”.

As to `CC(=O)O[C@H]1C[C@]2(C)[C@H]3CC=C4[C@@H]5CC(C)(C)CC[C@]5(C(=O)Nc5ccnc6ccccc56)CC[C@@]4(C)[C@]3(C)CC[C@H]2C(C)(C)[C@H]1OC(C)=O`, the pEC50 in series [1] was 5.62; in [2] it was 5.39; in [3] it was 5.37; in [4], 5.38; in series [5] it was 5.70; in series [6], 5.47. The compound further had an EC50 at 96 h in [7] of 2.9 µM. The outcome (in the series on A2780 [8]; in the series on A2780 [9]; in series [10]; in series [11]; in [12]; in series [13]) was Active. In [14], the outcome was Active. Besides, in [15], the solubility entry is “Insoluble”.

With `CC(=O)O[C@H]1C[C@]2(C)[C@H]3CC=C4[C@@H]5CC(C)(C)CC[C@]5(C(=O)Nc5cnc6ccccc6c5)CC[C@@]4(C)[C@]3(C)CC[C@H]2C(C)(C)[C@H]1OC(C)=O`, the pEC50 in series [1] is 5.54; in [2], 5.20; in series [3], 5.03; in [4] it was 5.13; in [5] it was 5.66; in [6] it was 5.30. In series [7], this compound displayed an EC50 at 96 h of 0.9 µM. The outcome (in the series with A2780 [8]; in the series with A2780 [9]; in series [10]; in series [11]; in series [12]; in series [13]) was Active. Further, the outcome in [14] was Active. Also, the solubility entry in series [15] is “Insoluble”.

In general, pEC50 refers to the negative decadic logarithm of the EC50, by convention in mol/L. What is called EC50 is the concentration at which the effect is half-maximal. A higher EC50 goes with a need for much substance.
